Experimental data reported in ChEMBL document CHEMBL1201862, “PubChem BioAssay data set” (2004).
Calls of active or inactive are those of the source.

Experiments:
[1] = biological target: T1, Heat shock factor protein 1 (Mus musculus, UniProt P38532); assay: decrease of HSF1-responsive luciferase luminescence – cell-based, NIH3T3, dose retest, confirmation (AID 2382); assay type: functional;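 also: NIH3T3 fibroblasts with HSF1-driven luciferase reporter stressed by proteasome inhibitor MG132; luminescence from HSF1-driven luciferase expression after 8 hours of MG132 stress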
T1 sequence (P38532 whole entry): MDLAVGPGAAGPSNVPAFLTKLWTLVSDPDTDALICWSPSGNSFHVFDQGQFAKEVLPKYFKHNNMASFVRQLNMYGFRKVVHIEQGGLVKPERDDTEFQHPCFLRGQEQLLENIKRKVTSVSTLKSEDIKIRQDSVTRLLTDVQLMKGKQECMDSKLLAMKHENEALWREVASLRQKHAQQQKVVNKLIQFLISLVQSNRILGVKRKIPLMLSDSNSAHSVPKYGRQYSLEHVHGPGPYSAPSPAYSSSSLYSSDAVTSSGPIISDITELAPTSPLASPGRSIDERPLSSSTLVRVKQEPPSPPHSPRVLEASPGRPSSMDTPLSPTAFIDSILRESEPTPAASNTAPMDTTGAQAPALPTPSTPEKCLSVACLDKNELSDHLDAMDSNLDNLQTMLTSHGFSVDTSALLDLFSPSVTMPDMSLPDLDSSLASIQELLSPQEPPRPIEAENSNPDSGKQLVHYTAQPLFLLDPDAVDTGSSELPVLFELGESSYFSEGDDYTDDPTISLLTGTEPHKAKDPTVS

[2] = biological target: T2, Corticotropin-releasing factor receptor 2/Corticotropin-releasing factor-binding protein (Homo sapiens, UniProt P24387+Q13324); assay: activators of CRF receptor 2 with binding protein – uHTS hits, confirmation (AID 602473); assay type: functional; conditions: read-out: EC50_Mean
T2 sequence (Q13324 whole entry): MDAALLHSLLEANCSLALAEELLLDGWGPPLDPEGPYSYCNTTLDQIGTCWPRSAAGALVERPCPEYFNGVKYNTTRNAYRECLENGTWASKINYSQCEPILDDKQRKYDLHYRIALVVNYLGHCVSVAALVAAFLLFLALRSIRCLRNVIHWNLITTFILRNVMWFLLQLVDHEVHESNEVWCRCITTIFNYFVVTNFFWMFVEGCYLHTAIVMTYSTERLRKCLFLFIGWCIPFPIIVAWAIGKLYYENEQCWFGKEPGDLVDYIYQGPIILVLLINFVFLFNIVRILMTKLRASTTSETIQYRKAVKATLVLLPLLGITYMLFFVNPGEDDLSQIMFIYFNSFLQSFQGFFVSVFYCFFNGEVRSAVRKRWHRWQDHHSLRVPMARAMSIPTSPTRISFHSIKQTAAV
T2 sequence (P24387 whole entry): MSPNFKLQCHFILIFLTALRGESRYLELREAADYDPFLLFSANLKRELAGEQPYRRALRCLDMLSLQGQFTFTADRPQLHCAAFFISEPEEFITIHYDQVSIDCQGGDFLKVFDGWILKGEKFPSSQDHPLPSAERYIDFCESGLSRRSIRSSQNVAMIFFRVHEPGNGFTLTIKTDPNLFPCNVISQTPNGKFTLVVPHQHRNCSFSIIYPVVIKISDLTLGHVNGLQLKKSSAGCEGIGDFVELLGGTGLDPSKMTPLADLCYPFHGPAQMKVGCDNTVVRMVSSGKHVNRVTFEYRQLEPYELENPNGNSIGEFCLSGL

[3] = biological target: T2, Corticotropin-releasing factor receptor 2/Corticotropin-releasing factor-binding protein; assay: Dose Response confirmation of uHTS hits for small molecule antagonists of the CRF-binding protein and CRF-R2 receptor complex.; assay type: functional; conditions: read-out: IC50_Mean
[4] = Luminescence Cell-Based Dose Retest to Confirm Inhibitors of Cancer Stem Cells. [Related pubchem assays (depositor defined):AID2717, AID2721]; assay type: functional; conditions: Homo sapiens
[5] = system: Streptococcus sp. 'group A'; assay: Streptococcus pyogenes SK(-)GAS viability under kanamycin – luminescence, BacTiterGlo, confirmation, counter-screen for streptokinase expression inhibitor project, dose response (AID 1900); assay type: functional, organism-based
Streptococcus = assay: GAS UMAA2166 growth inhibition – luminescence, BacTiterGlo, counter-screen for streptokinase expression inhibitor project, dose response (AID 1915); assay type: functional, organism-based;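 also: potency for reduction of bacterial viability or growth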
Streptokinase A = biological target: T3, Streptokinase A (Streptococcus pyogenes serotype M1, UniProt P10520); assay: viability-normalized secreted streptokinase activity reduction – plasminogen activation absorbance, OD405, dose response (AID 1914); assay type: functional, Streptococcus pyogenes M1 GAS;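 also: secreted streptokinase activity via plasminogen activation per viability signal from cell pellet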
T3 sequence (P10520 whole entry): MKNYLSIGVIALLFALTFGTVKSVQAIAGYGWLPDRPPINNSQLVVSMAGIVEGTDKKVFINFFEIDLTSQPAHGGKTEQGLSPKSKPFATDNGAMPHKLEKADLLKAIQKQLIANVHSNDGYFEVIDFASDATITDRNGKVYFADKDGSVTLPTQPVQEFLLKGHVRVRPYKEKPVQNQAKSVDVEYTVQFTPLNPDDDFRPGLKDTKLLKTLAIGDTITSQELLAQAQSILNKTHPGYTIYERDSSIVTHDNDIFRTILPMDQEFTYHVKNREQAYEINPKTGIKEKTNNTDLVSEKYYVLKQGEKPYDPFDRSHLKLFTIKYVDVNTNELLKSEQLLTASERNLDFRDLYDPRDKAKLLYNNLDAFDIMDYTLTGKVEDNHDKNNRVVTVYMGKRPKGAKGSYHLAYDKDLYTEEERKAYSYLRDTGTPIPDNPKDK

[6] = biological target: FAD-linked sulfhydryl oxidase ALR (Homo sapiens, UniProt P55789); assay: ALR-catalysed DTT oxidation blockers – biochemical, H2O2 detection, luminescence, cherry-pick, dose response (AID 493248)
FAD-linked sulfhydryl oxidase ALR, sequence (P55789 whole entry): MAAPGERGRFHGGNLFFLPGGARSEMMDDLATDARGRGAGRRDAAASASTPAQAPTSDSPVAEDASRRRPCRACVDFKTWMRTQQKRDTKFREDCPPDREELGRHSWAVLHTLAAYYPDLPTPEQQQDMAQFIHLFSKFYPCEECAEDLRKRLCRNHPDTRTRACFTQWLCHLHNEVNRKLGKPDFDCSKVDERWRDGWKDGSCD

[7] = biological target: T4, Rac GTPase-activating protein 1 (Homo sapiens, UniProt Q9H0H5); assay: blockers of MgcRacGAP-driven Rac1 GTP hydrolysis – biochemical, ADP Hunter fluorescence, primary and confirmatory, confirmation (AID 624330); assay type: functional
T4 sequence (Q9H0H5 whole entry): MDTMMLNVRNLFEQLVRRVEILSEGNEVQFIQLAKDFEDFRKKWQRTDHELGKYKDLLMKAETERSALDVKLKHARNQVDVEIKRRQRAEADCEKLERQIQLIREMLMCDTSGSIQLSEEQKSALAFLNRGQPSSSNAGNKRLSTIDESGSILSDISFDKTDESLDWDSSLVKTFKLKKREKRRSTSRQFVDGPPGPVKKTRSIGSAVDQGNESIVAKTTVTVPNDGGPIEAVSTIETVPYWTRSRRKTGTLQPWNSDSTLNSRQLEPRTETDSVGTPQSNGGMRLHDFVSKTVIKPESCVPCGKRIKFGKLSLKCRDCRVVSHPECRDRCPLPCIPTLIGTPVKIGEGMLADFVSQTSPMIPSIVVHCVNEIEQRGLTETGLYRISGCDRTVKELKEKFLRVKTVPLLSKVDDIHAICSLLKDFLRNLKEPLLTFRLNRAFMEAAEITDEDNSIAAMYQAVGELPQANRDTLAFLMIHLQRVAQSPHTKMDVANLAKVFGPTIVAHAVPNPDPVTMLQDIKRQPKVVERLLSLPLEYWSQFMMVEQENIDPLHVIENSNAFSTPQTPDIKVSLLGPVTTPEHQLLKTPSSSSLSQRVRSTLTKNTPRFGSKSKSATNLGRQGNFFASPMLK

INS1 = assay: INS-1E survival protection against cytokine death – cell-based, luminescence, retest, dose response (AID 449756); assay type: functional; conditions: Rattus norvegicus;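 also: cell death triggered by IL-1 beta plus TNF-alpha plus IFN-gamma mixture; protective hits raise ATP signal compared with cytokine alone wells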
[8] = Trypanosoma cruzi growth suppression in host cells – NIH3T3 host cells, beta-gal luminescence, confirmation (AID 2044); assay type: functional, cell-based;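 also: intracellular parasites grown in NIH/3T3 mouse fibroblasts as host cells; luminescent beta-galactosidase reporter signal from transgenic T. cruzi replicating inside host cells; inhibitors lower the luminescence signal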
[9] = NIH3T3 cell viability loss – ATP luminescence, mouse fibroblasts, counter-screen, dose response (AID 2010); assay type: functional, cell-based;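 also: cells exposed to compound for about 90 hours before reading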
[10] = reduction of Shn3 3'UTR-driven luciferase in osteoblasts – cell-based, Clone20 osteoblasts, firefly luciferase, cherry-picked, dose response (AID 624132); assay type: functional;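 also: firefly luciferase luminescence from reporter carrying the Shn3 3'UTR in osteoblasts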
[11] = P. falciparum Dd2 growth inhibitors, dose response, SYBR Green, cherry-picked samples (AID 1159567); assay type: functional, cell-based

## CC(C)(C)c1ccc(/C=C2\SC(=O)N(CCNC(=O)c3cccc(S(=O)(=O)N4CCOCC4)c3)C2=O)cc1
[1]
  EC50: 2.43 µM (active)

## CCOC(=O)C1CCCN(C2CC(=O)N(c3ccccc3)C2=O)C1 (centres undefined)
[2]
  EC50: > 53 µM (inactive)
[3]
  IC50: > 47.1 µM (inactive)

## FC(F)(F)c1cccc(Nc2ncnc3ccccc23)c1
[4]
  AC50: 1.43 µM (active)

## CN1C(=O)NC(c2ccccc2)(C(F)(F)F)S/C1=C(/C#N)c1nnc(N2CCOCC2)n1-c1ccccc1 (centres undefined)
[2]
  EC50: > 53 µM (inactive)
[5]
  EC50: > 150 µM (not active)
Streptococcus
  EC50: > 150 µM (not active)
[3]
  IC50: > 47.1 µM (inactive)
Streptokinase A
  EC50: > 150 µM (not active)

## CC(C)C(=O)Nc1ccc(C(=O)N2CCN(C(=O)c3ccco3)CC2)cc1
[1]
  EC50: > 195 µM (not active)

## CSCc1ccc(C(=O)NC(C)c2cnn(-c3ccccn3)c2C)o1 (centres undefined)
[6]
  AC50: 9.51 µM (active)

## CN(C(=O)c1ccccc1C(=O)OCC(=O)Nc1ccc(S(N)(=O)=O)cc1)c1ccccc1
[1]
  EC50: > 195 µM (not active)

## CCc1sc(C(=O)NCCc2ccc(S(N)(=O)=O)cc2)cc1Br
[2]
  EC50: > 53 µM (inactive)
[3]
  IC50: > 47.1 µM (inactive)

## Cn1c(-c2ccccc2)cnc1NCc1ccc(-c2ccccc2)cc1
[4]
  AC50: 1.34 µM (active)
[7]
  IC50: 78.1 µM (active)

## COc1ccc(C2NC(=O)C(C#N)=C(S)N2c2ccccc2)cc1OC (centres undefined)
[6]
  AC50: < 0.014 µM (active)

## CC1CCC(NC(=O)Nc2cccs2)CC1 (centres undefined)
[6]
  AC50: 1.18 µM (active)

## Fc1ccc(N2CCN(Cc3ccccn3)CC2)cc1
[6]
  AC50: 8.77 µM (active)

## C/[N+]([O-])=C\C1C(=O)CC(C)(C)CC1=O
[1]
  EC50: > 195 µM (not active)
[2]
  EC50: > 53 µM (inactive)
[3]
  IC50: > 47.1 µM (inactive)

## COC(=O)Nc1ccc(S(=O)(=O)N2CCC(C(=O)N(C)C3CCCCC3)CC2)cc1
[6]
  AC50: 1.92 µM (active)

## COc1ccc(-c2nc3ccc(C)cn3c2NCc2ccccc2)cc1SC1CCCCC1
INS1
  AC50: 2.61 µM (active)
[8]
  EC50: 1.2 µM (active)
[9]
  EC50: > 60 µM (not active)

## CN(Cc1ccccc1)S(=O)(=O)c1nnc(NC(=O)c2ccc(F)cc2)s1
[2]
  EC50: > 53 µM (inactive)
[3]
  IC50: < 0.368 µM (active)

## O=C1Nc2ccccc2N(O)N1c1cc(-c2cccc(Cl)c2)no1
[6]
  AC50: 1.92 µM (active)
[2]
  EC50: 6.32 µM (active)
[3]
  IC50: > 47.1 µM (inactive)

## COc1ccc(NC2CCCN(C(=O)CCc3ccccc3F)C2)cc1 (centres undefined)
[6]
  AC50: 13.4 µM (active)
[7]
  IC50: 65.4 µM (active)

## COc1ccc(C(=O)Nc2ccc3c(c2)nc(CN2CCCC2)n3C)cc1
[1]
  EC50: > 195 µM (not active)

## COC(=O)c1ccc(NC(=O)NC2CCCCC2)cc1
[1]
  EC50: > 195 µM (not active)

## O=C(Cc1ccc(-n2cccc2)cc1)N1CCN(c2ccccc2F)CC1
[2]
  EC50: > 53 µM (inactive)
[3]
  IC50: > 47.1 µM (inactive)

## Cc1ccc([N+](=O)[O-])cc1N(CC(=O)Nc1ccc(S(=O)(=O)Nc2cccc(C(F)(F)F)c2)cc1)S(C)(=O)=O
[4]
  AC50: 3.7 µM (active)
INS1
  AC50: 2.56 µM (active)
[8]
  EC50: 1.86 µM (active)
[9]
  EC50: > 60 µM (not active)

## Cc1ccnc(NC(=O)CS(=O)(=O)c2ccccc2)c1
[1]
  EC50: > 195 µM (not active)

## NS(=O)(=O)c1ccc(CNC(=O)c2cnccn2)cc1
[1]
  EC50: > 195 µM (not active)

## O=C(NNC(=O)c1ccccc1OCc1ccc(F)cc1)c1ccccc1O
[5]
  EC50: 3.68 µM (active)
Streptococcus
  EC50: 3.62 µM (active)
INS1
  AC50: 2.67 µM (active)

## COc1ccccc1OCCCCOc1ccccc1C(C)=O
INS1
  AC50: 12 µM (active)

## Cc1ccsc1C(=O)NNC(=O)CCN1CCN(c2ccccc2)CC1
[6]
  AC50: 4.88 µM (active)

## Cc1ccc(NC2CCCN(C(=O)c3cc4ncccn4n3)C2)cc1C (centres undefined)
[6]
  AC50: 4.14 µM (active)

## COc1ccc(NC(=O)N(C)C[C@H]2Oc3c(NS(=O)(=O)c4ccc(F)cc4)cccc3C(=O)N([C@H](C)CO)C[C@@H]2C)cc1
INS1
  AC50: > 260 µM (inactive)

## C=C1CCN([C@@H](CC(C)C)C(=O)Nc2nc3ccc(Cl)cc3s2)S(=O)(=O)c2ccccc21
[4]
  AC50: 5.19 µM (active)

## COc1ccc(S(=O)(=O)N(CC(C)C)C2CCS(=O)(=O)C2)cc1OC (centres undefined)
[2]
  EC50: > 53 µM (inactive)
[3]
  IC50: > 47.1 µM (inactive)

## O=C(O)C1(Nc2ccccc2Cl)CCCC1
[10]
  AC50: 29.5 µM (active)

## COc1cc(/C=N/NC(=O)c2ccc(O)nn2)ccc1O
[6]
  AC50: 1.22 µM (active)
[7]
  IC50: 23.9 µM (active)

## C/C=C/c1ccc2c(c1)[C@H]1[C@H](CCN1C(=O)c1ccc3c(c1)OCO3)[C@H](CO)N2
[11]
  AC50: 6.34 µM (active)

## C[C@H](CO)N1C[C@H](C)[C@@H](CN(C)C(=O)c2ccccc2F)Oc2ncc(C#Cc3ccccc3)cc2C1=O
[11]
  AC50: 4.79 µM (active)

## C[C@H]1CN([C@@H](C)CO)C(=O)c2c(c3ccccc3n2C)-c2ccccc2CO[C@@H]1CN(C)C(=O)Nc1cccc(F)c1
[11]
  AC50: 5.29 µM (active)
